From PubChem BioAssay AID212 (DTP/NCI, 2004) come the findings set out here.

This assay concerns BDF1 mice, colon carcinoma 38 sc, T/C %. The assay can be described thus: NCI In Vivo Anticancer Drug Screen. Data for tumor model Colon Carcinoma 38 (subcutaneous) in B6D2F1 (BDF1) mice. The conditions noted are these: endpoint: median tumor weight (est.), higher = larger tumour. An outline of the steps:
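Transplantable tumor in mice; compound-treated vs vehicle-dosed controls. Measured survival or tumor size; value = T ÷ C.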

The mark [1] stands for this setting: dose: 3.0 mg/kg/injection, schedule: Q07DX002 (ip), vehicle: saline.
The mark [2] stands for this setting: dose: 6.0 mg/kg/injection, schedule: Q07DX002 (ip), vehicle: saline.
Where [3] appears, read: dose: 12.0 mg/kg/injection, schedule: Q07DX002 (ip), vehicle: saline.
Where [4] appears, read: dose: 12.5 mg/kg/injection, schedule: Q07DX002 (ip), vehicle: saline + alcohol.
Where [5] appears, read: dose: 25.0 mg/kg/injection, schedule: Q07DX002 (ip), vehicle: saline + alcohol.
[6] abbreviates: dose: 100.0 mg/kg/injection, schedule: Q07DX002 (ip), vehicle: saline with Tween-80.
Setting [7] is: dose: 200.0 mg/kg/injection, schedule: Q07DX002 (ip), vehicle: saline with Tween-80.
The mark [8] stands for this setting: dose: 400.0 mg/kg/injection, schedule: Q07DX002 (ip), vehicle: saline with Tween-80.
[9] abbreviates: dose: 1.5 mg/kg/injection, schedule: Q07DX002 (ip), vehicle: saline.
The mark [10] stands for this setting: dose: 100.0 mg/kg/injection, schedule: Q07DX002 (ip), vehicle: Klucel (hydroxypropylcellulose) (HPC).
The mark [11] stands for this setting: dose: 400.0 mg/kg/injection, schedule: Q07DX002 (ip), vehicle: Klucel (hydroxypropylcellulose) (HPC).
Setting [12] is: dose: 50.0 mg/kg/injection, schedule: Q07DX002 (ip), vehicle: saline with Tween-80.

“And” between values parts separate entries of the source, which are not always exact repeats. Equal values may be shown once. Results filed as inconclusive are left out.

For `[Cl][Mn][Cl]`, the T/C reads like this: under setting [1], 118 % of control; (dose: 4.0 mg/kg/injection, schedule: Q07DX002 (ip), vehicle: saline) 97 % of control; under setting [2], 92 % of control; (dose: 8.0 mg/kg/injection, schedule: Q07DX002 (ip), vehicle: saline) 81 % of control; under setting [3], 119 % of control; (dose: 32.0 mg/kg/injection, schedule: Q07DX002 (ip), vehicle: saline) 95 % of control and 96 % of control. The T/C by setting is: (dose: 48.0 mg/kg/injection, schedule: Q07DX002 (ip), vehicle: saline) 119 % of control; (dose: 64.0 mg/kg/injection, schedule: Q07DX002 (ip), vehicle: saline) 75 % of control; (dose: 96.0 mg/kg/injection, schedule: Q07DX002 (ip), vehicle: saline) 115 % of control; (dose: 128.0 mg/kg/injection, schedule: Q07DX002 (ip), vehicle: saline) 78 % of control.

Take `NS(=O)(=O)c1cc2c(cc1Cl)NC=NS2(=O)=O`: the T/C is, setting by setting: (dose: 75.0 mg/kg/injection, schedule: Q07DX002 (ip), vehicle: Klucel (hydroxypropylcellulose) (HPC)) 120 % of control; (dose: 150.0 mg/kg/injection, schedule: Q07DX002 (ip), vehicle: Klucel (hydroxypropylcellulose) (HPC)) 113 % of control; (dose: 300.0 mg/kg/injection, schedule: Q07DX002 (ip), vehicle: Klucel (hydroxypropylcellulose) (HPC)) 90 % of control; (dose: 1200.0 mg/kg/injection, schedule: Q07DX002 (ip), vehicle: Klucel (hydroxypropylcellulose) (HPC)) 60 % of control.

On to `COC1CC(C)C(OC)c2cc(O)cc(c2O)NC(=O)/C(C)=C/C=C\C(C)C(OC(N)=O)/C(C)=C\C(C)C1OC` (stereo not given), for which the T/C reads like this: (dose: 3.13 mg/kg/injection, schedule: Q07DX002 (ip), vehicle: saline + alcohol) 114 % of control; under setting [4], 69 % of control; under setting [5], 94 % of control.

As for `CC[C@]1(O)C[C@H](OC2CC(N(C)C)C(OC3CC(O)C(O)C(C)O3)C(C)O2)c2c(cc3c(c2O)C(=O)c2c(O)ccc(O)c2C3=O)[C@H]1C(=O)OC` (stereo not given in full), the T/C is, setting by setting: (dose: 0.38 mg/kg/injection, schedule: Q07DX003 (ip), vehicle: Klucel (hydroxypropylcellulose) (HPC)) 109 % of control; (dose: 0.5 mg/kg/injection, schedule: Q07DX003 (ip), vehicle: Klucel (hydroxypropylcellulose) (HPC)) 45 % of control; (dose: 0.75 mg/kg/injection, schedule: Q07DX003 (ip), vehicle: Klucel (hydroxypropylcellulose) (HPC)) 62 % of control; (dose: 1.0 mg/kg/injection, schedule: Q07DX003 (ip), vehicle: Klucel (hydroxypropylcellulose) (HPC)) 25 % of control; (dose: 1.5 mg/kg/injection, schedule: Q07DX003 (ip), vehicle: Klucel (hydroxypropylcellulose) (HPC)) 66 % of control; (dose: 3.0 mg/kg/injection, schedule: Q07DX003 (ip), vehicle: Klucel (hydroxypropylcellulose) (HPC)) 73 % of control. The T/C (dose: 4.0 mg/kg/injection, schedule: Q07DX003 (ip), vehicle: Klucel (hydroxypropylcellulose) (HPC)) is 35 % of control; the T/C (dose: 6.0 mg/kg/injection, schedule: Q07DX003 (ip), vehicle: Klucel (hydroxypropylcellulose) (HPC)) is 79 % of control; the T/C (dose: 8.0 mg/kg/injection, schedule: Q07DX003 (ip), vehicle: Klucel (hydroxypropylcellulose) (HPC)) is 21 % of control.

`CC(=O)NC(Cc1ccc(F)cc1)C(=O)O` (stereo not given): the T/C by setting is: under setting [6], 84 % of control; under setting [7], 83 % of control; under setting [8], 77 % of control; (dose: 800.0 mg/kg/injection, schedule: Q07DX002 (ip), vehicle: saline with Tween-80) 77 % of control.

For the molecule `CN(C)S(=O)(=O)CCNC(=O)N(CCCl)N=O`, the T/C was 108 % of control (dose: 5.4 mg/kg/injection, schedule: Q07DX002 (oral), vehicle: saline); 65 % of control (dose: 7.5 mg/kg/injection, schedule: Q07DX002 (oral), vehicle: saline with Tween-80); 106 % of control (dose: 9.0 mg/kg/injection, schedule: Q07DX002 (oral), vehicle: saline); 94 % of control (dose: 15.0 mg/kg/injection, schedule: Q07DX002 (oral), vehicle: saline); 18 % of control (dose: 25.0 mg/kg/injection, schedule: Q07DX002 (oral), vehicle: saline).

For the molecule `CN(C)CCCNc1c2ccccc2nc2cccc([N+](=O)[O-])c12`, the T/C (dose: 0.03 mg/kg/injection, schedule: Q07DX002 (ip), vehicle: saline) is 112 % of control and 104 % of control; the T/C (dose: 0.06 mg/kg/injection, schedule: Q07DX002 (ip), vehicle: saline) was 116 % of control; the T/C (dose: 0.06 mg/kg/injection, schedule: Q07DX003 (ip), vehicle: saline) is 93 % of control; the T/C (dose: 0.12 mg/kg/injection, schedule: Q07DX003 (ip), vehicle: saline) is 98 % of control; the T/C (dose: 0.25 mg/kg/injection, schedule: Q07DX003 (ip), vehicle: saline) was 101 % of control.

Turning to `O=c1[nH]cnc2c1ccn2C1OC(CO)C(O)C1O` (stereo not given), the T/C was 88 % of control under setting [9]; 118 % of control under setting [1]; 100 % of control under setting [2]; 86 % of control under setting [3]; 63 % of control (dose: 24.0 mg/kg/injection, schedule: Q07DX002 (ip), vehicle: saline).

As for `CSc1ncnc2c1ncn2C1OC(CO)C(O)C1O` (stereo not given), the T/C runs as follows: (dose: 6.25 mg/kg/injection, schedule: Q07DX002 (ip), vehicle: saline + alcohol) 91 % of control; under setting [4], 83 % of control; under setting [5], 150 % of control; (dose: 100.0 mg/kg/injection, schedule: Q07DX002 (ip), vehicle: saline + alcohol) 25 % of control.

In the case of `O=C1C=C2C(=CCOC2O)O1` (stereo not given), the T/C is 91 % of control (dose: 0.75 mg/kg/injection, schedule: Q07DX002 (ip), vehicle: saline); 98 % of control (dose: 1.0 mg/kg/injection, schedule: Q07DX002 (ip), vehicle: water); 72 % of control under setting [9]; 90 % of control (dose: 2.0 mg/kg/injection, schedule: Q07DX002 (ip), vehicle: water); 117 % of control (dose: 4.0 mg/kg/injection, schedule: Q07DX002 (ip), vehicle: water).

For `CC(=O)Nc1ccc(/C=N/NC(N)=S)cc1`, the T/C was 117 % of control and 98 % of control under setting [10]; 98 % of control under setting [11]; 86 % of control (dose: 450.0 mg/kg/injection, schedule: Q07DX002 (ip), vehicle: saline with Tween-80); 57 % of control (dose: 900.0 mg/kg/injection, schedule: Q07DX002 (ip), vehicle: saline with Tween-80); 119 % of control (dose: 1800.0 mg/kg/injection, schedule: Q07DX002 (ip), vehicle: saline with Tween-80).

Turning to `Clc1ccc(CN2COc3c(ccc4cccnc34)C2)cc1Cl`, the T/C is 180 % of control (dose: 12.5 mg/kg/injection, schedule: Q07DX002 (ip), vehicle: saline with Tween-80); 171 % of control (dose: 25.0 mg/kg/injection, schedule: Q07DX002 (ip), vehicle: saline with Tween-80); 110 % of control under setting [12]; 206 % of control under setting [6].

Regarding `CCN(CC)CCOC(=O)/C=C\c1cccc2c(=O)cc(-c3ccccc3)oc12`, the T/C reads like this: under setting [10], 102 % of control; (dose: 200.0 mg/kg/injection, schedule: Q07DX002 (ip), vehicle: Klucel (hydroxypropylcellulose) (HPC)) 65 % of control; under setting [11], 52 % of control.

Regarding `O=Cc1ccc(O)c(O)c1`, the T/C is 65 % of control (dose: 25.0 mg/kg/injection, schedule: Q07DX002 (ip), vehicle: saline); 117 % of control under setting [12]; 85 % of control (dose: 50.0 mg/kg/injection, schedule: Q07DX002 (ip), vehicle: saline); 91 % of control under setting [6]; 63 % of control (dose: 100.0 mg/kg/injection, schedule: Q07DX002 (ip), vehicle: saline); 108 % of control under setting [7]. The T/C reads like this: (dose: 200.0 mg/kg/injection, schedule: Q07DX002 (ip), vehicle: saline) 97 % of control; under setting [8], 113 % of control; (dose: 800.0 mg/kg/injection, schedule: Q07DX002 (ip), vehicle: saline) 88 % of control.
